“And” between values parts separate entries of the source, which are not always exact repeats. Equal entries are not always repeated.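 In this assay, cells in 96-well plates receive the compound at five concentrations for 48 hours. Endpoints are linearly interpolated between the surrounding concentrations. GI50 marks 50% less growth. TGI is the concentration that stops growth completely.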
Columns and labels:
Experiment in all cases: NCI tumour cell line growth inhibition, 48 h
ACHN renal = tested on: ACHN renal
CCRF-CEM leukemia = tested on: CCRF-CEM leukemia
HOP-62 NSCLC = tested on: HOP-62 NSCLC
MOLT-4 leukemia = tested on: MOLT-4 leukemia
NCI-H522 lung = tested on: NCI-H522 lung
OVCAR-3 ovarian = tested on: OVCAR-3 ovarian
OVCAR-5 ovarian = tested on: OVCAR-5 ovarian
RXF 393 renal = tested on: RXF 393 renal
SF-539 CNS = tested on: SF-539 CNS
SK-MEL-2 melanoma = tested on: SK-MEL-2 melanoma

## Cc1nnc(-c2ccc(C)c(-c3ccc(C(=O)Nc4cccc(C#N)c4)cc3)c2)o1
ACHN renal
  GI50: > 25 µM
  TGI: > 25 µM
CCRF-CEM leukemia
  GI50: > 25 µM
  TGI: > 25 µM
HOP-62 NSCLC
  GI50: > 25 µM
  TGI: > 25 µM
MOLT-4 leukemia
  GI50: > 25 µM
  TGI: > 25 µM
NCI-H522 lung
  GI50: > 25 µM
  TGI: > 25 µM
OVCAR-3 ovarian
  GI50: > 25 µM
  TGI: > 25 µM
OVCAR-5 ovarian
  GI50: > 25 µM
  TGI: > 25 µM
RXF 393 renal
  GI50: > 25 µM
  TGI: > 25 µM
SF-539 CNS
  GI50: > 25 µM
  TGI: > 25 µM
SK-MEL-2 melanoma
  GI50: > 25 µM
  TGI: > 25 µM

## CNC(=O)OCc1c(COC(=O)NC)c(-c2ccc(-c3ccccc3)cc2)n(C)c1C
ACHN renal
  TGI: 4.27 µM
HOP-62 NSCLC
  TGI: 18.8 µM
MOLT-4 leukemia
  TGI: 8.95 µM
NCI-H522 lung
  TGI: 4.04 µM
OVCAR-3 ovarian
  TGI: 7.88 µM
OVCAR-5 ovarian
  TGI: 8.26 µM
RXF 393 renal
  TGI: 2.91 µM
SF-539 CNS
  TGI: 8.37 µM
SK-MEL-2 melanoma
  TGI: 4.96 µM

## N#C/C(=C/c1cccc(Oc2ccccc2)c1)c1ccccc1
ACHN renal
  TGI: > 100 µM
CCRF-CEM leukemia
  TGI: > 100 µM
MOLT-4 leukemia
  TGI: > 100 µM
NCI-H522 lung
  TGI: > 100 µM
OVCAR-5 ovarian
  TGI: > 100 µM
SF-539 CNS
  TGI: > 100 µM
SK-MEL-2 melanoma
  TGI: > 100 µM

## NC1=NN(c2ccccc2)C(=O)C1C(=O)CCC(=O)Nc1cccc(Cl)c1 (stereo unspecified)
ACHN renal
  TGI: > 100 µM
CCRF-CEM leukemia
  TGI: > 100 µM
HOP-62 NSCLC
  TGI: > 100 µM
NCI-H522 lung
  TGI: > 100 µM
OVCAR-3 ovarian
  TGI: > 100 µM
OVCAR-5 ovarian
  TGI: > 100 µM
RXF 393 renal
  TGI: > 100 µM
SF-539 CNS
  TGI: > 100 µM
SK-MEL-2 melanoma
  TGI: > 100 µM

## CC(=O)Oc1cc2c(cc1OC(C)=O)C1(C)CCC2(C)c2cc(OC(C)=O)c(OC(C)=O)cc21
ACHN renal
  TGI: > 100 µM
CCRF-CEM leukemia
  TGI: 11.4 µM
HOP-62 NSCLC
  TGI: 58.2 µM
MOLT-4 leukemia
  TGI: 96.1 µM
OVCAR-3 ovarian
  TGI: 29.7 µM
OVCAR-5 ovarian
  TGI: 80.9 µM
RXF 393 renal
  TGI: > 100 µM
SK-MEL-2 melanoma
  TGI: 66.4 µM

## Cc1cn(C2CC(OC(=O)c3ccc(Cl)cc3)C(COC(=O)c3ccc(Cl)cc3)O2)c(=O)[nH]c1=O (stereo unspecified)
ACHN renal
  TGI: > 100 µM
CCRF-CEM leukemia
  TGI: > 100 µM
HOP-62 NSCLC
  TGI: > 100 µM
MOLT-4 leukemia
  TGI: > 100 µM
NCI-H522 lung
  TGI: > 100 µM
OVCAR-3 ovarian
  TGI: > 100 µM
OVCAR-5 ovarian
  TGI: > 100 µM
SK-MEL-2 melanoma
  TGI: > 100 µM

## N/N=C\c1c2ccccc2c(=O)n2c1oc1ccccc12
ACHN renal
  GI50: 16.3 µM
  TGI: 29.9 µM
HOP-62 NSCLC
  GI50: 16.9 µM
  TGI: 32.9 µM
MOLT-4 leukemia
  GI50: 17.4 µM
  TGI: 64.9 µM
NCI-H522 lung
  GI50: 13.6 µM
  TGI: 46 µM
OVCAR-3 ovarian
  GI50: 14.7 µM
  TGI: 28 µM
OVCAR-5 ovarian
  GI50: 18.4 µM
  TGI: 34.8 µM
RXF 393 renal
  GI50: 20 µM
  TGI: 52.5 µM
SF-539 CNS
  GI50: 11.4 µM
  TGI: 23.6 µM
SK-MEL-2 melanoma
  GI50: 26.5 µM
  TGI: > 100 µM

## CSC(SC)(C(=O)O)c1cc(-c2c(Cl)cccc2Cl)no1
ACHN renal
  TGI: > 100 µM
CCRF-CEM leukemia
  TGI: > 100 µM
HOP-62 NSCLC
  TGI: > 100 µM
MOLT-4 leukemia
  TGI: > 100 µM
NCI-H522 lung
  TGI: 80.3 µM
OVCAR-3 ovarian
  TGI: > 100 µM
OVCAR-5 ovarian
  TGI: > 100 µM
SF-539 CNS
  TGI: > 100 µM
SK-MEL-2 melanoma
  TGI: > 100 µM

## CC(=O)C1C(c2ccccc2)C2(C)OC(=O)C(C#N)C12C (stereo unspecified)
ACHN renal
  TGI: > 100 µM
CCRF-CEM leukemia
  TGI: > 100 µM
MOLT-4 leukemia
  TGI: > 100 µM
OVCAR-3 ovarian
  TGI: > 100 µM
OVCAR-5 ovarian
  TGI: > 100 µM
RXF 393 renal
  TGI: > 100 µM
SF-539 CNS
  TGI: > 100 µM
SK-MEL-2 melanoma
  TGI: > 100 µM

## CC(=O)c1ccc(NC(=O)/C(CC(=O)c2sc(-c3cccnc3)nc2C)=N/NC(N)=O)cc1
ACHN renal
  TGI: 56.1 µM
CCRF-CEM leukemia
  TGI: 66.5 µM
MOLT-4 leukemia
  TGI: 46 µM
NCI-H522 lung
  TGI: > 100 µM
OVCAR-3 ovarian
  TGI: > 100 µM
OVCAR-5 ovarian
  TGI: > 100 µM
SK-MEL-2 melanoma
  TGI: > 100 µM

## CCOC1C(Br)Cn2c(=O)c3cc4ccccc4cc3c(=O)n2C1C (stereo unspecified)
ACHN renal
  TGI: > 100 µM
CCRF-CEM leukemia
  TGI: > 100 µM
HOP-62 NSCLC
  TGI: > 100 µM
MOLT-4 leukemia
  TGI: 94 µM
OVCAR-3 ovarian
  TGI: > 100 µM
OVCAR-5 ovarian
  TGI: > 100 µM
RXF 393 renal
  TGI: > 100 µM
SF-539 CNS
  TGI: > 100 µM
SK-MEL-2 melanoma
  TGI: > 100 µM

## Nc1ncc(-c2cnn(C3CCNCC3)c2)cc1-c1nc2cc(Cl)ccc2o1
ACHN renal
  GI50: 1.65 µM
  TGI: 3.08 µM
CCRF-CEM leukemia
  GI50: 0.222 µM
  TGI: 0.541 µM
HOP-62 NSCLC
  GI50: 1.61 µM
  TGI: 3.1 µM
OVCAR-3 ovarian
  GI50: 1.73 µM
  TGI: 3.26 µM
OVCAR-5 ovarian
  GI50: 1.77 µM
  TGI: 3.22 µM
RXF 393 renal
  GI50: 1.55 µM
  TGI: 2.92 µM
SF-539 CNS
  GI50: 1.55 µM
  TGI: 2.91 µM

## C=C(C)C1CC2(C)C(C)CC(O)CC2C(OC(=O)C=C(C)C)C1O (stereo unspecified)
ACHN renal
  TGI: 52 µM
CCRF-CEM leukemia
  TGI: 84.7 µM
MOLT-4 leukemia
  TGI: 83.1 µM
NCI-H522 lung
  TGI: > 100 µM
OVCAR-5 ovarian
  TGI: > 100 µM
RXF 393 renal
  TGI: > 100 µM
SF-539 CNS
  TGI: > 100 µM
SK-MEL-2 melanoma
  TGI: > 100 µM

## CCCCCCCCCCCCCCCCCCOC[C@H](COP(=O)(O)O[C@H]1[C@H](O)[C@@H](O)[C@H](O)C[C@H]1O)OC
ACHN renal
  GI50: > 100 µM and 16.3 µM
  TGI: > 100 µM and 30 µM
CCRF-CEM leukemia
  TGI: 12.7 µM and 46 µM
HOP-62 NSCLC
  GI50: > 100 µM and 15.7 µM
  TGI: > 100 µM and 41.5 µM
MOLT-4 leukemia
  GI50: 27 µM and 12.4 µM
  TGI: > 100 µM and 33 µM
NCI-H522 lung
  GI50: 36.5 µM and 11.4 µM
  TGI: > 100 µM and 25.4 µM
OVCAR-3 ovarian
  GI50: > 100 µM and 16.9 µM
  TGI: > 100 µM and 34.9 µM
RXF 393 renal
  GI50: 35.4 µM and 5.76 µM
  TGI: > 100 µM and 21.1 µM
SF-539 CNS
  GI50: > 100 µM and 16.2 µM
  TGI: > 100 µM and 31 µM
SK-MEL-2 melanoma
  GI50: > 100 µM and 16.3 µM
  TGI: > 100 µM and 30.2 µM

## NC(CCCC(N)P(=O)(O)O)P(=O)(O)O (stereo unspecified)
ACHN renal
  TGI: > 100 µM
CCRF-CEM leukemia
  TGI: > 100 µM
MOLT-4 leukemia
  TGI: > 100 µM
NCI-H522 lung
  TGI: > 100 µM
OVCAR-3 ovarian
  TGI: > 100 µM
RXF 393 renal
  TGI: > 100 µM
SF-539 CNS
  TGI: > 100 µM

## CCCCCCCCCCCCCP(=O)(O)O
ACHN renal
  TGI: > 100 µM
CCRF-CEM leukemia
  TGI: > 100 µM
HOP-62 NSCLC
  TGI: > 100 µM
NCI-H522 lung
  TGI: > 100 µM
OVCAR-3 ovarian
  TGI: > 100 µM
OVCAR-5 ovarian
  TGI: > 100 µM
RXF 393 renal
  TGI: > 100 µM
SF-539 CNS
  TGI: > 100 µM
SK-MEL-2 melanoma
  TGI: > 100 µM

## OCC12C=CC(C1)c1ccccc12 (stereo unspecified)
ACHN renal
  TGI: > 100 µM
CCRF-CEM leukemia
  TGI: > 100 µM
HOP-62 NSCLC
  TGI: > 100 µM
MOLT-4 leukemia
  TGI: > 100 µM
OVCAR-3 ovarian
  TGI: > 100 µM
OVCAR-5 ovarian
  TGI: > 100 µM

## CCN1CCCc2cc3c(C(F)(F)F)cc(=O)oc3cc21
ACHN renal
  TGI: > 100 µM
HOP-62 NSCLC
  TGI: > 100 µM
MOLT-4 leukemia
  TGI: > 100 µM
NCI-H522 lung
  TGI: > 100 µM
OVCAR-3 ovarian
  TGI: > 100 µM
OVCAR-5 ovarian
  TGI: > 100 µM
RXF 393 renal
  TGI: 63.2 µM
SF-539 CNS
  TGI: > 100 µM
SK-MEL-2 melanoma
  TGI: > 100 µM

## C=CC[P@]1(=O)O[C@H](c2ccccc2)[C@H](C)N1C
ACHN renal
  TGI: > 100 µM
CCRF-CEM leukemia
  TGI: > 100 µM
MOLT-4 leukemia
  TGI: > 100 µM
OVCAR-3 ovarian
  TGI: > 100 µM
OVCAR-5 ovarian
  TGI: > 100 µM
RXF 393 renal
  TGI: > 100 µM
SF-539 CNS
  TGI: > 100 µM

## CCC1=CCN(c2cc(C)ccn2)OC1c1ccc(OC)cc1 (stereo unspecified)
ACHN renal
  TGI: > 100 µM
CCRF-CEM leukemia
  TGI: 85.7 µM
HOP-62 NSCLC
  TGI: > 100 µM
MOLT-4 leukemia
  TGI: 82.4 µM
NCI-H522 lung
  TGI: 52.1 µM
OVCAR-3 ovarian
  TGI: > 100 µM
OVCAR-5 ovarian
  TGI: > 100 µM
RXF 393 renal
  TGI: 58.1 µM
SK-MEL-2 melanoma
  TGI: 41.4 µM

## COc1ccc([C@@]2(O)c3c(ccc(O)c3OC)[C@H]2OC)c(OC)c1
ACHN renal
  TGI: > 100 µM
CCRF-CEM leukemia
  TGI: > 100 µM
HOP-62 NSCLC
  TGI: > 100 µM
MOLT-4 leukemia
  TGI: > 100 µM
NCI-H522 lung
  TGI: 85.4 µM
OVCAR-3 ovarian
  TGI: > 100 µM
OVCAR-5 ovarian
  TGI: > 100 µM
SK-MEL-2 melanoma
  TGI: > 100 µM
